Tested on: LG0703-F948-PDC complex spheroid viability
Experiment: Anticancer human tumor LG0703-F948-PDC patient-derived lung adenocarcinoma cell line growth inhibition
Conditions: for IC50: curve of first compound; for viability, T/C: stronger effect = lower value; active means viability on the fitted dose curve at most 10% of control; inactive means the rest
In short: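 Drug combinations with the LSD1 inhibitor iadademstat tested on tumor cells co-cultured as spheroids with endothelial cells and mesenchymal stem cells. Concentrations descended in half-log increments from clinical Cmax or 10 microM.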

[1] = second compound 0.1 µM, first compound 0.0316 µM
[2] = second compound 0.1 µM, first compound 0.1 µM
[3] = second compound 0.1 µM, first compound 0.316 µM
[4] = second compound 0.1 µM, first compound 1 µM
[5] = second compound 0.1 µM, first compound 3.16 µM
[6] = second compound 0.1 µM, first compound 10 µM
[7] = second compound 0.316 µM, first compound 0.0316 µM
[8] = second compound 0.316 µM, first compound 0.1 µM
[9] = second compound 0.316 µM, first compound 0.316 µM
[10] = second compound 0.316 µM, first compound 1 µM
[11] = second compound 0.316 µM, first compound 3.16 µM
[12] = second compound 0.316 µM, first compound 10 µM
[13] = second compound 1 µM, first compound 0.0316 µM
[14] = second compound 1 µM, first compound 0.1 µM
[15] = second compound 1 µM, first compound 0.316 µM
[16] = second compound 1 µM, first compound 1 µM
[17] = second compound 1 µM, first compound 3.16 µM
[18] = second compound 1 µM, first compound 10 µM
[19] = second compound 3.16 µM, first compound 0.0316 µM
[20] = second compound 3.16 µM, first compound 0.1 µM
[21] = second compound 3.16 µM, first compound 0.316 µM
[22] = second compound 3.16 µM, first compound 1 µM
[23] = second compound 3.16 µM, first compound 3.16 µM
[24] = second compound 3.16 µM, first compound 10 µM
[25] = second compound 10 µM, first compound 0.0316 µM
[26] = second compound 10 µM, first compound 0.1 µM
[27] = second compound 10 µM, first compound 0.316 µM
[28] = second compound 10 µM, first compound 1 µM
[29] = second compound 10 µM, first compound 3.16 µM
[30] = second compound 10 µM, first compound 10 µM
[31] = second compound 0.1 µM, first compound 0.00949 µM
[32] = second compound 0.1 µM, first compound 0.03 µM
[33] = second compound 0.1 µM, first compound 0.0949 µM
[34] = second compound 0.1 µM, first compound 0.3 µM
[35] = second compound 0.316 µM, first compound 0.00949 µM
[36] = second compound 0.316 µM, first compound 0.03 µM
[37] = second compound 0.316 µM, first compound 0.0949 µM
[38] = second compound 0.316 µM, first compound 0.3 µM
[39] = second compound 1 µM, first compound 0.00949 µM
[40] = second compound 1 µM, first compound 0.03 µM
[41] = second compound 1 µM, first compound 0.0949 µM
[42] = second compound 1 µM, first compound 0.3 µM
[43] = second compound 3.16 µM, first compound 0.00949 µM
[44] = second compound 3.16 µM, first compound 0.03 µM
[45] = second compound 3.16 µM, first compound 0.0949 µM
[46] = second compound 3.16 µM, first compound 0.3 µM
[47] = second compound 10 µM, first compound 0.00949 µM
[48] = second compound 10 µM, first compound 0.03 µM
[49] = second compound 10 µM, first compound 0.0949 µM
[50] = second compound 10 µM, first compound 0.3 µM
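Further: spheroids exposed to agents for seven days before readout.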
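Wherever viability, T/C is given: 100% = DMSO vehicle control wells as normalization base.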

CC1(C)CCC(CN2CCN(c3ccc(C(=O)NS(=O)(=O)c4ccc(NCC5CCOCC5)c([N+](=O)[O-])c4)c(Oc4cnc5[nH]ccc5c4)c3)CC2)=C(c2ccc(Cl)cc2)C1 + NC1CC1c1ccc(-c2cccc(O)c2)cc1
active: viability, T/C [6] 3.56% | viability, T/C [12] 3% | viability, T/C [18] 5.17% | viability, T/C [24] 3.01% | viability, T/C [30] 3.13%
2.34 µM: IC50 (second compound 3.16 µM)
inactive: viability, T/C [1] 98.2% | viability, T/C [2] 113% | viability, T/C [3] 111% | viability, T/C [4] 98% | viability, T/C [5] 42.8% | viability, T/C [7] 102% | viability, T/C [8] 103% | viability, T/C [9] 100% | viability, T/C [10] 103% | viability, T/C [11] 35.6% | viability, T/C [13] 106% | viability, T/C [14] 104% | viability, T/C [15] 111% | viability, T/C [16] 85.6% | viability, T/C [17] 43.8% | viability, T/C [19] 104% | viability, T/C [20] 81.7% | viability, T/C [21] 102% | viability, T/C [22] 111% | viability, T/C [23] 32.5% | viability, T/C [25] 103% | viability, T/C [26] 104% | viability, T/C [27] 93.9% | viability, T/C [28] 86.4% | viability, T/C [29] 38%
2.72 µM: IC50 (second compound 0.1 µM)
2.47 µM: IC50 (second compound 0.316 µM)
2.37 µM: IC50 (second compound 10 µM)
2.64 µM: IC50 (second compound 1 µM)

CC1COCCN1c1cc(C2(S(C)(=N)=O)CC2)nc(-c2ccnc3[nH]ccc23)n1 (stereo not given) + NC1CC1c1ccc(-c2cccc(O)c2)cc1
3.92 µM: IC50 (second compound 10 µM)
4.65 µM: IC50 (second compound 0.316 µM)
3.55 µM: IC50 (second compound 3.16 µM)
5.24 µM: IC50 (second compound 1 µM)
5 µM: IC50 (second compound 0.1 µM)
inactive: viability, T/C [1] 120% | viability, T/C [2] 104% | viability, T/C [3] 92.9% | viability, T/C [4] 92.1% | viability, T/C [5] 69.7% | viability, T/C [6] 24.1% | viability, T/C [7] 111% | viability, T/C [8] 101% | viability, T/C [9] 118% | viability, T/C [10] 97% | viability, T/C [11] 63.8% | viability, T/C [12] 23.6% | viability, T/C [13] 111% | viability, T/C [14] 97.9% | viability, T/C [15] 113% | viability, T/C [16] 102% | viability, T/C [17] 70.8% | viability, T/C [18] 23.4% | viability, T/C [19] 96% | viability, T/C [20] 89.8% | viability, T/C [21] 102% | viability, T/C [22] 79.5% | viability, T/C [23] 54.1% | viability, T/C [24] 22.4% | viability, T/C [25] 96.5% | viability, T/C [26] 98.9% | viability, T/C [27] 91.1% | viability, T/C [28] 79.7% | viability, T/C [29] 58.6% | viability, T/C [30] 14.8%

CCN(c1cc(-c2ccc(CN3CCOCC3)cc2)cc(C(=O)NCc2c(C)cc(C)[nH]c2=O)c1C)C1CCOCC1 + NC1CC1c1ccc(-c2cccc(O)c2)cc1
> 3 µM: IC50 (second compound 0.1 µM) | IC50 (second compound 0.316 µM) | IC50 (second compound 1 µM) | IC50 (second compound 3.16 µM) | IC50 (second compound 10 µM)
inactive: viability, T/C [31] 104% | viability, T/C [32] 113% | viability, T/C [33] 93.7% | viability, T/C [34] 105% | viability, T/C (second compound 0.1 µM, first compound 0.949 µM) 107% | viability, T/C (second compound 0.1 µM, first compound 3 µM) 105% | viability, T/C [35] 112% | viability, T/C [36] 93.9% | viability, T/C [37] 101% | viability, T/C [38] 93.6% | viability, T/C (second compound 0.316 µM, first compound 0.949 µM) 102% | viability, T/C (second compound 0.316 µM, first compound 3 µM) 94.9% | viability, T/C [39] 89.3% | viability, T/C [40] 98.8% | viability, T/C [41] 95.6% | viability, T/C [42] 96.2% | viability, T/C (second compound 1 µM, first compound 0.949 µM) 94.7% | viability, T/C (second compound 1 µM, first compound 3 µM) 93.2% | viability, T/C [43] 93.7% | viability, T/C [44] 95.6% | viability, T/C [45] 93.7% | viability, T/C [46] 85.1% | viability, T/C (second compound 3.16 µM, first compound 0.949 µM) 99.7% | viability, T/C (second compound 3.16 µM, first compound 3 µM) 95.2% | viability, T/C [47] 105% | viability, T/C [48] 91.9% | viability, T/C [49] 84.6% | viability, T/C [50] 81.6% | viability, T/C (second compound 10 µM, first compound 0.949 µM) 81.8% | viability, T/C (second compound 10 µM, first compound 3 µM) 86.1%

Cn1ncnc1C1c2n[nH]c(=O)c3cc(F)cc(c23)NC1c1ccc(F)cc1 (stereo not given) + NC1CC1c1ccc(-c2cccc(O)c2)cc1
inactive: viability, T/C (second compound 0.1 µM, first compound 0.000316 µM) 105% | viability, T/C (second compound 0.1 µM, first compound 0.001 µM) 114% | viability, T/C (second compound 0.1 µM, first compound 0.00316 µM) 94.9% | viability, T/C (second compound 0.1 µM, first compound 0.01 µM) 100% | viability, T/C [1] 108% | viability, T/C [2] 125% | viability, T/C (second compound 0.316 µM, first compound 0.000316 µM) 113% | viability, T/C (second compound 0.316 µM, first compound 0.001 µM) 114% | viability, T/C (second compound 0.316 µM, first compound 0.00316 µM) 117% | viability, T/C (second compound 0.316 µM, first compound 0.01 µM) 100% | viability, T/C [7] 93.7% | viability, T/C [8] 105% | viability, T/C (second compound 1 µM, first compound 0.000316 µM) 102% | viability, T/C (second compound 1 µM, first compound 0.001 µM) 112% | viability, T/C (second compound 1 µM, first compound 0.00316 µM) 120% | viability, T/C (second compound 1 µM, first compound 0.01 µM) 109% | viability, T/C [13] 111% | viability, T/C [14] 106% | viability, T/C (second compound 3.16 µM, first compound 0.000316 µM) 119% | viability, T/C (second compound 3.16 µM, first compound 0.001 µM) 123% | viability, T/C (second compound 3.16 µM, first compound 0.00316 µM) 101% | viability, T/C (second compound 3.16 µM, first compound 0.01 µM) 107% | viability, T/C [19] 114% | viability, T/C [20] 124% | viability, T/C (second compound 10 µM, first compound 0.000316 µM) 108% | viability, T/C (second compound 10 µM, first compound 0.001 µM) 101% | viability, T/C (second compound 10 µM, first compound 0.00316 µM) 104% | viability, T/C (second compound 10 µM, first compound 0.01 µM) 100% | viability, T/C [25] 100% | viability, T/C [26] 99.8%
> 0.1 µM: IC50 (second compound 0.1 µM) | IC50 (second compound 0.316 µM) | IC50 (second compound 1 µM) | IC50 (second compound 3.16 µM) | IC50 (second compound 10 µM)

Nc1ncn(C2CC(O)C(CO)S2)c(=O)n1 (stereo not given) + NC1CC1c1ccc(-c2cccc(O)c2)cc1
> 0.3 µM: IC50 (second compound 0.1 µM) | IC50 (second compound 0.316 µM) | IC50 (second compound 1 µM) | IC50 (second compound 3.16 µM) | IC50 (second compound 10 µM)
inactive: viability, T/C (second compound 0.1 µM, first compound 0.000949 µM) 114% | viability, T/C (second compound 0.1 µM, first compound 0.003 µM) 102% | viability, T/C [31] 104% | viability, T/C [32] 108% | viability, T/C [33] 108% | viability, T/C [34] 86.2% | viability, T/C (second compound 0.316 µM, first compound 0.000949 µM) 106% | viability, T/C (second compound 0.316 µM, first compound 0.003 µM) 92.7% | viability, T/C [35] 91% | viability, T/C [36] 107% | viability, T/C [37] 102% | viability, T/C [38] 81.1% | viability, T/C (second compound 1 µM, first compound 0.000949 µM) 117% | viability, T/C (second compound 1 µM, first compound 0.003 µM) 105% | viability, T/C [39] 102% | viability, T/C [40] 108% | viability, T/C [41] 82.4% | viability, T/C [42] 84.8% | viability, T/C (second compound 3.16 µM, first compound 0.000949 µM) 114% | viability, T/C (second compound 3.16 µM, first compound 0.003 µM) 101% | viability, T/C [43] 90.8% | viability, T/C [44] 104% | viability, T/C [45] 100% | viability, T/C [46] 71.5% | viability, T/C (second compound 10 µM, first compound 0.000949 µM) 104% | viability, T/C (second compound 10 µM, first compound 0.003 µM) 94.7% | viability, T/C [47] 96.8% | viability, T/C [48] 105% | viability, T/C [49] 103% | viability, T/C [50] 77.4%

From PubChem BioAssay AID1918952 (Molecular Pharmacology Branch, DTP, NCI, 2023)
